The text below walks through data of patent publication EP2253620B1, “SUBSTITUTED 3-CYANOQUINOLINES AS PROTEIN TYROSINE KINASES INHIBITORS” (Wyeth Holdings LLC, priority 1998, dated 2000).

In data set [1] the test system is Human Epidermoid Tumors (A431). Nature of the data set: In Vivo Inhibition of the Growth of Human Epidermoid Tumors (A431) in mice. The note with it: for Relative Tumor Growth Day 7 / % T/C Day 7 / Relative Tumor Growth Day 14 / % T/C Day 14 / Relative Tumor Growth Day 20 / % T/C Day 20 / Relative Tumor Growth Day 28 / % T/C Day 28 / S/T (# of Survivors/# of Treated): Table 4, days 1 through 10; for % T/C Day 7 / % T/C Day 14 / % T/C Day 20 / % T/C Day 28: * = p < 0.01; for S/T (# of Survivors/# of Treated): Day +28 post tumor staging. The protocol: In Vivo Inhibition of the Growth of Human Epidermoid Tumors (A431)
BALB/c nu/nu female mice (Charles River, Wilmington, MA) were used in the in vivo standard pharmacological test procedures. Human epidermoid carcinoma cells A-431 (American Type Culture Collection, Rockville, Maryland # CRL-155) were grown in vitro as described above. A unit of 5 X 10^6 cells were injected SC into mice. […] Control animals received no drug. […] […] The %T/C (Tumor/Control) is determined by dividing the relative tumor growth of the treated group by the relative tumor growth of the placebo group and multiplying by 100.

The test system of the next data set is A431. In words: Inhibition of Cancer Cell Growth as Measured by Cell Number. The note with it: 48 hours exposure, Sulforhodamine B; for IC50: Homo sapiens, A-431. Type of data set: cell-based, Human. The protocol:
(§1) Inhibition of Cancer Cell Growth as Measured bv Cell Number
(§2) Human tumor cell lines were plated in 96-well plates (250 µl/well, 1-6 x 10^4 cells/ml) in RPMI 1640 medium, containing 5% FBS (Fetal Bovine Serum). […] After 48 hours exposure to test compounds, cells were fixed with trichloroacetic acid, and stained with Sulforhodamine B. After washing with trichloroacetic acid, bound dye was solubilized in 10 mM Tris base and optical density was determined using plate reader. Under conditions of the assay the optical density is proportional to the number of cells in the well. […] The test procedure is described in details by Philip Skehan et. al, J.Natl. Canc. Inst., 82, 1107-1112 (1990). […] Information about some of the cell lines used in these test procedures is available from the American Type Tissue Collection: Cell Lines and Hybridomas, 1994 Reference Guide, 8th Edition.

A further data set deals with SKBR3. The data set is described as above. Type of data set: cell-based, Human. The note with it: 48 hours exposure, Sulforhodamine B; for IC50: Homo sapiens, SK-BR-3. The protocol: as §1, §2
A further data set has as its system SW620. The data set is described as above. Type of data set: cell-based, Human. The note with it: 48 hours exposure, Sulforhodamine B; for IC50: Homo sapiens, SW-620. How it is done:
as §1, §2

A further data set deals with MDAMB435. The data set is described as above. Type of data set: cell-based, Human. Particulars: 48 hours exposure, Sulforhodamine B; for IC50: Homo sapiens, MDA-MB-435. The protocol: as §1, §2
A further data set relates to Her2/3T3. The data set is described as above. Type of data set: cell-based. The note with it: 48 hours exposure, Sulforhodamine B. How it is done: as §1, §2
For a further data set, the system named is 3T3. The data set is described as above. Particulars: 48 hours exposure, Sulforhodamine B; for IC50: Mus musculus, NIH3T3. Type of data set: cell-based. The protocol:
as §1, §2

Data set [2] addresses T1, epidermal growth factor receptor kinase (Homo sapiens, UniProt P00533).
T1 construct: containing the EGFR cDNA encoding amino acids 645 - 1186 preceded by Met-Ala-(His)6; made in house; host or cells: Sf9 insect cells, recombinant baculovirus vHcEGFR52
Nature of the data set: Inhibition of Epidermal Growth Factor Receptor Kinase (EGF-R) using recombinant enzyme. Type of data set: biochemical. The note with it: averages of the individual determinations.
Procedure: Representative test compounds were evaluated for their ability to inhibit the phosphorylation of the tyrosine residue of a peptide substrate catalyzed by the enzyme epidermal growth factor receptor kinase. […] The enzyme used in this assay is the His-tagged cytoplasmic domain of EGFR. A recombinant baculovirus (vHcEGFR52) was constructed containing the EGFR cDNA encoding amino acids 645 - 1186 preceded by Met-Ala-(His)6. Sf9 cells in 100 mm plates were infected at an moi of 10 pfu/cell and cells were harvested 48 h post infection. A cytoplasmic extract was prepared using 1% Triton X-100 and applied to Ni-NTA column. After washing the column with 20 mM imidazole, HcEGFR was eluted with 250 mM imidazole (in 50 mM Na2HPO4, pH 8.0, 300 mM NaCl). Fractions collected were dialyzed against 10 mM HEPES, pH 7.0, 50 mM NaCl, 10% glycerol, 1ug/mL antipain and leupeptin and 0.1 mM Pefabloc SC. The protein was frozen in dry ice/methanol and stored -70°C.
Test compounds were made into 10 mg/mL stock solutions in 100% dimethylsulfoxide (DMSO). Prior to experiment, stock solutions were diluted to 500 uM with 100% DMSO and then serially diluted to the desired concentration with HEPES buffer (30 mM HEPES pH 7.4).
For the enzyme reaction, 10 µL of each inhibitor (at various concentrations) were added to each well of a 96-well plate. To this was added 3 µL of enzyme (1:10 dilution in 10mM HEPES, pH 7.4 for final conc. of 1:120). This was allowed to sit for 10 min on ice and was followed by the addition of 5 µl peptide (80 µM final conc.), 10 µl of 4X Buffer (Table A), 0.25 µL ^33P-ATP and 12 µL H2O. The reaction was allowed to run for 90 min at room temperature and was followed by spotting the entire volume on to precut P81 filter papers. The filter discs were washed 2X with 0.5% phosphoric acid and radioactivity was measured using a liquid scintillation counter.
The % inhibition of the test compound was determined for at least three different concentrations and the IC50 value was evaluated from the dose response curve. […] CPM(control) is in units of counts per minute and was a number expressing the amount of radiolabled ATP (g-^33P) incorporated into the RR-SRC peptide substrate by the enzyme after 90 minutes at room temperature in the absence of test compound as measured by liquid scintillation counting. The CPM values were corrected for the background counts produced by ATP in the absence of the enzymatic reaction. The IC50 values in TABLE 1 are averages of the individual determinations.

For a further data set, the target named is Mek and Erk (Homo sapiens, UniProt P28482+Q02750). In words: Mitogen Activated Protein Kinase (MAPK) coupled assay (Mek-Erk). Type of data set: biochemical. Particulars: coupled MEK 1 / ERK2; separate entries = separate tests; read-out: Mek and Erk. How it is done: Mitogen Activated Protein Kinase (MAPK) Assay
Mek and Erk, sequence (Q02750 whole entry): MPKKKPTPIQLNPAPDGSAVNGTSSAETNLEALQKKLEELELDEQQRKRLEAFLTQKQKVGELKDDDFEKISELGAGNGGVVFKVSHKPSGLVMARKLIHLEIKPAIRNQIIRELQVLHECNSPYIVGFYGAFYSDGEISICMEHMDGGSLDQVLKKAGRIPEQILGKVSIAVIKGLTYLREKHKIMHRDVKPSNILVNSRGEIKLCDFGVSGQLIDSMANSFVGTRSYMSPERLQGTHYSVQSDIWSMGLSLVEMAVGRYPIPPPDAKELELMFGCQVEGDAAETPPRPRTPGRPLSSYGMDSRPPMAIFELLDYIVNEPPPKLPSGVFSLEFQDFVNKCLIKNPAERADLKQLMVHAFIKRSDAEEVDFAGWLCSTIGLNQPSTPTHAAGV
Mek and Erk, sequence (P28482 2-360): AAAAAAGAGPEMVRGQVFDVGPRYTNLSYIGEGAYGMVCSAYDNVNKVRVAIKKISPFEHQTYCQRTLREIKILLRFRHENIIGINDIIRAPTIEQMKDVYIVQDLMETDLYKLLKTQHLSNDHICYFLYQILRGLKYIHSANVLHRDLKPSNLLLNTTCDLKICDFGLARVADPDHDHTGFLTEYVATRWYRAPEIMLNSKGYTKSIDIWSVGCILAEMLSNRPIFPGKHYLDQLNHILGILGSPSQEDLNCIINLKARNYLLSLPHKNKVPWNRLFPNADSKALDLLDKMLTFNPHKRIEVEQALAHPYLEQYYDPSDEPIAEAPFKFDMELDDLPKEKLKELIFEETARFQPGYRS
To evaluate inhibitors of the MAP (mitogen activated protein) kinase a two component coupled standard pharmacological test procedure, which measures phosphorylation of a serine/threonine residue in an appropriate sequence in the substrate in the presence and absence of a putative inhibitor, was used. Recombinant human MEK 1 (MAPKK) was first used to activate recombinant human ERK2 (MAPK) and the activated MAPK (ERK) was incubated with substrate (MBP peptide or MYC peptide) in the presence of ATP, Mg^+2 and radiolabeled ^33P ATP. The phosphorylated peptide was captured on a P 81 phosphocellulose filter (paper filter or embedded in microtiter plate) washed and counted by scintillation methods.
The peptide substrates used in the assay are MBP, peptide substrate ([…]), or synthetic Myc substrate, ([…]•5 TFA. The recombinant enzymes used were prepared as GST fusion proteins of human ERK 2 and human MEK 1. Inhibitor samples were prepared as 10X stocks in 10% DMSO and an appropriate aliquot was used to deliver either 10 ug/ml for a single point screening dose or 100, 10, 1, and 0.1 uM final concentration for a dose response curve. Final DMSO concentrations were less than or equal to 1%.
The reaction was run as follows in 50 mM Tris kinase buffer, pH 7.4 in a reaction volume of 50 ul. The appropriate volume of kinase buffer and inhibitor sample was added to the tube. Appropriate dilution of enzyme was delivered to give 2-5 ug recombinant MAPK (Erk ) per tube. The inhibitor was incubated with MAPK (Erk) for 30 min at 0 deg. C. Recombinant Mek (MAPKK) ( 0.5-2.5 ug) or fully activated Mek (0.05-0.1 units) was added to activate the Erk and incubated for 30 min at 30° C. Then substrate and gamma ^33P ATP was were added to give a final concentration of 0.5- 1 mM MBPP or 250-500 uM Myc; 0.2-0.5 uCi gamma P 33 ATP/tube; 50 µM ATP final concentration. Samples were incubated at 30°C for 30 minutes and the reaction was stopped by adding 25 µl of ice cold 10 %TCA .After samples were chilled on ice for 30 min, 20 µl of sample was transferred onto P 81 phosphocellulose filter paper or appropriate MTP with embedded P 81 filter. Filter papers or MTP were washed 2 times with a large volume of 1% acetic acid, then 2 times with water. The filters or MTP were briefly air dried before addition of scintillant and samples were counted in the appropriate scintillation counter set up for reading ^33P isotope. Samples included a positive control (activated enzyme plus substrate); a no enzyme control; a no substrate control; samples with different concentrations of putative inhibitor; and samples with reference inhibitors (other active compounds or non-specific inhibitors such as staurosporine or K252 B).
The raw data was captured as cpm. Sample replicates were averaged and corrected for background count. Mean cpm data was tabulated by group and % inhibition by a test compound was calculated as (corrected cpm control- corrected. cpm sample/control) X 100 = % inhibition. […] The results obtained for representative compounds of this invention are listed in TABLE 2 where there may be separate entries for the same compound; this is an indication that the compound was evaluated more than one time.

Another data set addresses erbB2 (Homo sapiens, UniProt P04626). Nature of the data set: erbB2 inhibition at a single concentration. Type of data set: biochemical. Particulars: read-out: erbB2 % Inh 2 µg/mL.
For data set [3], the target named is Epithelial Cell Kinase (ECK) (Homo sapiens, UniProt P29317). In words: Inhibition of Epithelial Cell Kinase (ECK) tyrosine kinase activity. Type of data set: biochemical. The protocol: In this standard pharmacological test procedure, a biotinylated peptide substrate is first immobilized on neutravidin-coated microtiter plates. The test drug, the Epithelial Cell Kinase (ECK), Mg^++, sodium vanadate (a protein tyrosine phosphatase inhibitor), and an appropriate buffer to maintain pH (7.2) are then added to the immobilized substrate-containing microtiter wells. ATP is then added to initiate phosphorylation. After incubation, the assay plates are washed with a suitable buffer leaving behind phosphorylated peptide which is exposed to horse radish peroxidase (HRP)-conjugated anti-phosphotyrosine monoclonal antibody. The antibody-treated plates are washed again and the HRP activity in individual wells is quantified as a reflection of degree of substrate phosphorylation. […] Multiple entries for a given compound indication it was tested multiple times.
Epithelial Cell Kinase (ECK), sequence (P29317 24-976, species assumed): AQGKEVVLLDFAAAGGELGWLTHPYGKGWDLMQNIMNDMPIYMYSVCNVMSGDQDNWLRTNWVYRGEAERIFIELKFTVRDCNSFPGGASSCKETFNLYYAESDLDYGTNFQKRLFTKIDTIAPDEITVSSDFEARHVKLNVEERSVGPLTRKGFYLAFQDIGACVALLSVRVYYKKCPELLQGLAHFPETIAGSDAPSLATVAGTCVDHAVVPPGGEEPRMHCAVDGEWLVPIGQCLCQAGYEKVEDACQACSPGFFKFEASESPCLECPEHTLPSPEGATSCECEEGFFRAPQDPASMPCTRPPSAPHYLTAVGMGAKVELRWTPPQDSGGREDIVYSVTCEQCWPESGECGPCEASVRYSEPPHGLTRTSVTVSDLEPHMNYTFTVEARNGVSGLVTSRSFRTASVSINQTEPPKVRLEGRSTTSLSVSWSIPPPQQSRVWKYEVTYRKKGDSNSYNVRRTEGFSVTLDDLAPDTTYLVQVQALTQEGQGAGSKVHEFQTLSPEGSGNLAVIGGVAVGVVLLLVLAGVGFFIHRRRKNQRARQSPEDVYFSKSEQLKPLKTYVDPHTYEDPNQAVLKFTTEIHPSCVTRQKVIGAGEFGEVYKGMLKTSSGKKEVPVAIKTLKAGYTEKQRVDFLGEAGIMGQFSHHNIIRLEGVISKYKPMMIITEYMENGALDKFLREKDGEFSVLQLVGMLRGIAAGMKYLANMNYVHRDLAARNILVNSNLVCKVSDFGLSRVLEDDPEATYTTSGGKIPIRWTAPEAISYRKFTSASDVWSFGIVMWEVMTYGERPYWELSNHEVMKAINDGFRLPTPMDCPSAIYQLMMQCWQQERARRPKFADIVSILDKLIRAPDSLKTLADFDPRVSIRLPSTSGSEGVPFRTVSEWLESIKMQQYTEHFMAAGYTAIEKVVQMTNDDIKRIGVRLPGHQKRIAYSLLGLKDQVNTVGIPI

Values after ≈ are worked out from the molar mass of the structure shown. Where two headings read alike, the source gives them in different places.

T1 sequence (P00533 669-1210): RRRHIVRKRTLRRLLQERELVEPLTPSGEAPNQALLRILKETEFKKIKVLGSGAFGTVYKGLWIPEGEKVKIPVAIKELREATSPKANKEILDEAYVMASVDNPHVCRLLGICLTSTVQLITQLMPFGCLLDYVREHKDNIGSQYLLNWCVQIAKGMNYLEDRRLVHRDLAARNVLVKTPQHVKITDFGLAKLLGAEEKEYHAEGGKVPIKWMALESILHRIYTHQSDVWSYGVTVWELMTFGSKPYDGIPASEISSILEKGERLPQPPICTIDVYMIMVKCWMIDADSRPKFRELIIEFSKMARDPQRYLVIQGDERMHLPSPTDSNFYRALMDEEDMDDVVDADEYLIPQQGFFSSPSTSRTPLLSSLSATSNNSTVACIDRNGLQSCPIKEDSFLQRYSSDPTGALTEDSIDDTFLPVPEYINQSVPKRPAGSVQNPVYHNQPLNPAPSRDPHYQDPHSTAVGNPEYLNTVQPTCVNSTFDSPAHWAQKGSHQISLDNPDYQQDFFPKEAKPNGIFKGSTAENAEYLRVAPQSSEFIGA
erbB2, sequence (P04626 23-1255): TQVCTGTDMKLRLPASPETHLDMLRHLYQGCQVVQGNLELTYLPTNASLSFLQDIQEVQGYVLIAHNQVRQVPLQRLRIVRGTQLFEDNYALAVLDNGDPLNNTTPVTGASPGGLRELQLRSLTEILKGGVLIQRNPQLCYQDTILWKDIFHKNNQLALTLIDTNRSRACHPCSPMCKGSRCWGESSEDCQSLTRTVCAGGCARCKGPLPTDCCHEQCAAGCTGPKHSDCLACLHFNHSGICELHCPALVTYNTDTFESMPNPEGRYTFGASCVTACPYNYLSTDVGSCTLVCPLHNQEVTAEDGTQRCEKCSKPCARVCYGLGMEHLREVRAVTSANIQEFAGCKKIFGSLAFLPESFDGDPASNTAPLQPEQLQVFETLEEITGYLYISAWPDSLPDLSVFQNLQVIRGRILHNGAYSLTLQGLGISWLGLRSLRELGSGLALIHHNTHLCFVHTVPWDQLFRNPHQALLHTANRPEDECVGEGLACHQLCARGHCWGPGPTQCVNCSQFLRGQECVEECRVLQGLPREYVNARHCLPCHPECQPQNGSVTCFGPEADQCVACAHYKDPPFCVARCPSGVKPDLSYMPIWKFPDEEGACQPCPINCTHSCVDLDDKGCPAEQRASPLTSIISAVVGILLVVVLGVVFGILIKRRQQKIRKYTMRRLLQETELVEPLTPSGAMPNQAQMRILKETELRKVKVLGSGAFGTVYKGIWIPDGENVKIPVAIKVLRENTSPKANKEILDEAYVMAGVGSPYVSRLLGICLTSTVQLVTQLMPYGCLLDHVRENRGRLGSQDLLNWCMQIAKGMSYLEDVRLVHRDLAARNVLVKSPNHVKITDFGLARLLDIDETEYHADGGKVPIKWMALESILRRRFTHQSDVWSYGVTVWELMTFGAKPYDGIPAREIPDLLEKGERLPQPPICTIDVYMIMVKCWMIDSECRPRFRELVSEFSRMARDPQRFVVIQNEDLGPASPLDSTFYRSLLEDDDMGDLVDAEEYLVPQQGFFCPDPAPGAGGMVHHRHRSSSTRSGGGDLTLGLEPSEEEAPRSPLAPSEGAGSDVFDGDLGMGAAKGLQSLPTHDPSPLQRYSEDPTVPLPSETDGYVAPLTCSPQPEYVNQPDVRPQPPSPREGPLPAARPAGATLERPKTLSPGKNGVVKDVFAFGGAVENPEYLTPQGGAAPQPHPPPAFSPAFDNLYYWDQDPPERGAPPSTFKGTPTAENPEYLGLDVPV

Consider `COc1cc2ncc(C#N)c(Nc3ccc(F)c(Cl)c3)c2cc1NC(=O)C=CCN1CCC2(CC1)OCCO2` [Example 92, 4-(1,4-Dioxa-8-aza-spiror[4.5]dec-8-yl)-but-2-enoic acid [4-(3-chloro-4-fluoro-phenylamino)-3-cvano-7-methox-quinolin-6-yl]-amide], for which, in data set [1] (10 mg/kg/dose PO), the “Relative Tumor Growth Day 7” value was found to be 3.94, the “% T/C Day 7” value is reported as 72%, the “Relative Tumor Growth Day 14” value is recorded as 10.41 and the “% T/C Day 14” value is listed as 100%. Further, in data set [1] (10 mg/kg/dose PO), the “Relative Tumor Growth Day 20” value is 14.76, the “% T/C Day 20” value was found to be 119%, the “Relative Tumor Growth Day 28” value was 22.51 and the “% T/C Day 28” value was 159%. Also, the “S/T (# of Survivors/# of Treated)” value in data set [1] (10 mg/kg/dose PO) is given as 5/5. In addition, in [1] (40 mg/kg/dose PO), the “Relative Tumor Growth Day 7” value was 1.49, the “% T/C Day 7” value was 27* %, the “Relative Tumor Growth Day 14” value is 1.58 and the “% T/C Day 14” value is 15* %. Moreover, in [1] (40 mg/kg/dose PO), the “Relative Tumor Growth Day 20” value stood at 2.60, the “% T/C Day 20” value is reported as 21* %, the “Relative Tumor Growth Day 28” value is 6.22 and the “% T/C Day 28” value is 44%. Besides, the “S/T (# of Survivors/# of Treated)” value in data set [1] (40 mg/kg/dose PO) is 5/5. For the same compound, the “inhibition of tumor growth in vivo” value in data set [1] (given orally at 40 mg/Kg) is on record as “effective inhibitor of tumor growth in vivo”. Further, the “IC50 A431” value in the data set with A431 is 0.283 µg/mL (≈ 0.513 µM). Moreover, the “IC50 SKBR3” value with SKBR3 is reported as 0.188 µg/mL (≈ 0.341 µM). In addition, in the data set on SW620, the “IC50 SW620” value is listed as 2.51 µg/mL (≈ 4.55 µM). Moreover, the “IC50 MDAMB435” value with MDAMB435 was determined as 3.32 µg/mL (≈ 6.01 µM). Moreover, the “IC50 Her2/3T3” value in the data set with Her2/3T3 came out at 0.35 µg/mL (≈ 0.634 µM). In the data set on 3T3, the “IC50 3T3” value came out at 2.79 µg/mL (≈ 5.05 µM).

As to `COc1cc2ncc(C#N)c(Nc3ccc(F)c(Cl)c3)c2cc1NC(=O)C=CCN1CCCC(CO)C1.Cl` (stereo not drawn) [Example 91, 4-(3-Hydroxymethyl-piperidin-1-yl)-but-2-enoic acid [4-(3-chloro-4-fluoro-phenylamino)-3-cyano-7-methoxy-quinolin-6-yl]-amide hydrochloride], the IC50 in [2] amounted to 0.015 µM; in the data set with A431 it was 0.232 µg/mL; in the data set on SKBR3, 0.181 µg/mL; in the data set on SW620 it was 1.73 µg/mL; in the data set with MDAMB435, 1.83 µg/mL; in the data set on Her2/3T3, 0.375 µg/mL. In addition, in the data set with 3T3, the IC50 was determined as 2.87 µg/mL.

Turning to `COCCOCC#CC(=O)Nc1ccc2ncc(C#N)c(Nc3cccc(Br)c3)c2c1` [Example 72, 4-(2-Methoxy-ethoxy)-but-2-ynoic acid [4-(3-bromo-phenylamino)-3-cyano-quinolin-6-yl]-amide], the IC50 at Mek and Erk is above 100 µM; in data set [2], 0.006 µM; in the data set with A431 it was 0.9 µg/mL (≈ 1.88 µM); in the data set with SKBR3, 0.8 µg/mL (≈ 1.67 µM); with SW620, 0.4 µg/mL (≈ 0.834 µM); in the data set on MDAMB435, 3.5 µg/mL (≈ 7.3 µM). Further, in data set [3], the IC50 is above 41.7 µM. Moreover, the inhibition at 2 µg/mL on erbB2 amounted to 96%.

Take `C=CCN(C)CC#CC(=O)Nc1ccc2ncc(C#N)c(Nc3cccc(Br)c3)c2c1` [Example 77, N-[4-[(3-Bromophenyl)amino]-3-cyano-6-quinolinyl]-4-(N-allyl-N-methylamino)-2-butynamide]: the IC50 was above 100 µM at Mek and Erk; 0.006 µM in [2]; 0.03 µg/mL (≈ 0.0632 µM) with A431; 0.02 µg/mL (≈ 0.0422 µM) with SKBR3; 0.1 µg/mL (≈ 0.211 µM) with SW620; 0.1 µg/mL (≈ 0.211 µM) in the data set on MDAMB435. This compound also yielded an IC50 in [3] (IC50 = concentration that inhibits substrate phosphorylation by 50%) of 42.2 µM. Also, at erbB2, the inhibition at 2 µg/mL was 105%.

Turning to `COC[C@@H]1CCCN1CC=CC(=O)Nc1cc2c(Nc3ccc(F)c(Cl)c3)c(C#N)cnc2cc1OC.Cl.Cl` [Example 90, (S)-4-(2-Methoxymethyl-pyrrolidin-1-yl)-but-2-enoic acid [4-(3-chloro-4-fluoro-phenylamino)-3-cyano-7-methoxy-quinolin-6-yl]-amide dihydrochloride], the IC50 in the data set with A431 amounted to 0.234 µg/mL; with SKBR3, 0.148 µg/mL; with SW620, 1.24 µg/mL; in the data set with MDAMB435 it was 1.74 µg/mL; in the data set on Her2/3T3, 0.329 µg/mL; with 3T3, 2.1 µg/mL.
